Laboratory results reported in patent US20200246297A1, “LIQUID PHARMACEUTICAL FORMULATIONS OF TETRAIODOTHYRONINE” (priority 2015, published 2020).
Where two headings read alike, the source gives them in different places.

Legend:
[1] = Quantity of T4 microaggregates formed in water: HPLC T4 concentration before and after 0.2 μm microfiltration; type: physicochemical
Experimental: […] 50 mL of each sample taken is microfiltered through a Millipore GSWP02500 membrane with a porosity of 0.2 μm.
(§1) 50 mL of each sample taken is microfiltered through a Millipore GSWP02500 membrane with a porosity of […].
as §1
50 mL of each sample taken is microfiltered through a Millipore GSWP02500 membrane with a porosity of 0.2 μm.

[2] = Filtration through membranes with cut-off ≤100 KDa: T4 in the permeate; type: physicochemical
[3] = Scanning electron microscopy (SEM) of the filter membrane surface; type: physicochemical; conditions: T4 powder in water, comparative example
Experimental: These findings indicate that despite the 1:100 dilution process undergone by the original 150 μg/mL mixture, the formation of microaggregates remains stable, even after 8 h, and removes a considerable amount of the active ingredient from the pharmacological action.

[4] = Protective effect of PEG: residual T4 assay by HPLC after 10 h stirring under nitrogen or oxygen; type: physicochemical; conditions: 600 rpm, 35° C.
Experimental: 5 mL of each solution is left under stirring for 10 h at 600 rpm and 35° C. in a nitrogen atmosphere, and 5 mL is left under the same conditions but in an oxygen atmosphere.

[5] = Saturation of T4 solutions in PEG; type: physicochemical; conditions: T4 solvated in PEG
Text: Due to their structure, said nanoaggregates are easily absorbed at gastrointestinal level, and are therefore completely and certainly bioavailable.

[6] = cited from earlier work
[7] = cited from earlier work; remark: listed apart in the source
[8] = T4 150 μg/mL in 50% w/w aqueous PEG 400, 2000, 4000 or 8000 (all types), diluted 100 times in water pH 1.5, T0
[9] = T4 150 μg/mL in 50% w/w aqueous PEG 400, 2000, 4000 or 8000 (all types), diluted 100 times in water pH 6.5, T0
[10] = T4 150 μg/mL in PEG 200, 300, 400 or 600 (all types), diluted 100 times in water pH 6.5, T0

(2S)-2-amino-3-[4-(4-hydroxy-3,5-diiodo-oxyphenyloxy)-3,5-diiodophenyl]propanoic acid [T4]
T4 concentration after microfiltration ([1]; T4 150 μg/mL in 30% w/w aqueous PEG 400, 2000, 4000 or 8000 (all types), diluted 100 times in water pH 6.5, T0): 75 % of the value before microfiltration
T4 concentration after microfiltration [1, 8]: 100 % of the theoretical value
T4 concentration before microfiltration [1, 8]: 100 % of the theoretical value
T4 concentration after microfiltration [1, 9]: 100 % of the theoretical value
T4 concentration before microfiltration [1, 9]: 100 % of the theoretical value
T4 concentration after microfiltration [1, 10]: 100 % of the theoretical value
T4 concentration before microfiltration [1, 10]: 100 % of the theoretical value
T4 concentration after microfiltration compared with before ([1]; T4 150 μg/mL in PEG 8000/glycerol or PEG/ethanol 50/50 w/w (both systems), diluted 100 times in water pH 6.5, T0): identical to that before microfiltration
behaviour at later times (microfiltration) ([1]; T4 in 30% w/w aqueous PEG, diluted 100 times in water pH 6.5, T1h, T4h and T8h): behaviour similar to that at T0
T4 concentration in the solution before microfiltration ([1]; T4 powder 150 μg/mL in water pH 6.5, diluted 1:100 in water pH 6.5, T0 (30 sec)): 97.3 % of the theoretical value
T4 concentration after microfiltration ([1]; T4 powder 150 μg/mL in water pH 6.5, diluted 1:100 in water pH 6.5, T0 (30 sec), 0.2 μm filter): 18.5 % of the theoretical value
T4 concentration in the solution before microfiltration ([1]; T4 powder in water pH 6.5, diluted 1:100, T1h): 97.9%
T4 concentration after microfiltration ([1]; T4 powder in water pH 6.5, diluted 1:100, T1h, 0.2 μm filter): 27.1%
T4 concentration in the solution before microfiltration ([1]; T4 powder in water pH 6.5, diluted 1:100, T4h): 98.2%
T4 concentration after microfiltration ([1]; T4 powder in water pH 6.5, diluted 1:100, T4h, 0.2 μm filter): 27.5%
T4 concentration in the solution before microfiltration ([1]; T4 powder in water pH 6.5, diluted 1:100, T8h): 97.5%
T4 concentration after microfiltration ([1]; T4 powder in water pH 6.5, diluted 1:100, T8h, 0.2 μm filter): 23.7%
T4 in the permeate of ≤100 KDa membrane ([2]; T4 in 50% PEG in water, diluted 100 times in water pH 6.5): quantitative absence of T4 in the permeate
T4 in the permeate of ≤100 KDa membrane ([2]; T4 in 50% w/w aqueous PEG, diluted 100 times in water pH 1.5): quantitative absence of T4 in the permeate
T4 in the permeate of ≤100 KDa membrane ([2]; T4 in PEG 200, 300, 400 or 600, diluted 100 times in water pH 6.5): quantitative absence of T4 in the permeate
T4 in the permeate of ≤100 KDa membrane ([2]; T4 in PEG 8000/glycerol or PEG/ethanol 50/50 w/w, diluted 100 times in water pH 6.5): quantitative absence of T4 in the permeate
T4 in the permeate of ≤100 KDa membrane ([2]; T4 in glycerin, ethanol or glycerin/ethanol 80/20 w/w, diluted 100 times in water pH 6.5): quantitative absence of T4 in the permeate
average length on the longer axis of elongated crystalline structures on the filter [3]: exceeding 3.03±1.40 μm
T4 assay value of the solutions ([4]; T4 150 μg/mL in ethanol, glycerol, PEG 200, 300, 400 or 600 (all cases), nitrogen atmosphere): remains the same as the theoretical value
residual T4 assay value ([4]; T4 150 μg/mL in glycerol or ethanol, oxygen atmosphere): 30 % of the original assay value
concentration of T4 solution in PEG usable without the system becoming saturated [5]: up to 0.1 g/mL
intrinsic dissolution rate (IDR) ([6]; entire physiological pH range): about 0.0002 mg/min/cm^2
Biopharmaceutics Classification System class ([6]; high solubility and intestinal permeability): Class I
half-life of the medicament ([7]; euthyroidism): about 7 days
half-life of the medicament ([7]; hypothyroidism and pregnancy): 220 to 240 h
share absorbed in the duodenum ([7]; oral, small intestine): 21%
share absorbed in the ileum ([7]; oral, small intestine): 34%
share absorbed in the jejunum ([7]; oral, small intestine): 45%
time absorption takes ([7]; oral): about three
